Data set [1] is described as follows: UV-visible transmittance, molar extinction coefficient of Soret band. The note with it: concentrations 300 to 1000 ppm. The data set is classed as physicochemical. As to the method:
^1H-NMR spectra were recorded on Bruker 600 MHz spectrometer. CD3OD (Methanol-d3) and DMSO-d6 (Dimethyl sulfoxide-d6) were used as solvents. UPLC of porphyrins was acquired on ACQUITY UPLC H-Class PLUS UPLC with Waters PDA detector, using Phenomenex Jupiter® 5 μm C18 300 Å, LC Column (150×2.0 mm). LC-MS of porphyrins was acquired on The Thermo Scientific™ Q Exactive™ HF hybrid quadrupole-Orbitrap mass spectrometer, using Phenomenex Aeris™ 3.6 μm WIDEPORE C4 200 Å, LC Column (50×2.1 mm). UV-vis spectra were obtained on Perkin Elmer Lambda 850 UV-Vis Spectrophotometer.
Compound 8 also characterized by UV-visible transmittance at concentrations ranging from 300 to 1000 ppm (FIG. 15). Molar extinction coefficients of 490,000-544,000 M-1 cm-1 for Soret band are in agreement with literature values for similar metallated porphyrins (Taniguchi, M.; Lindsey, J. S. Photochemistry and Photobiology, 2018, 94, 290-327).
Compound 9 also characterized by UV-visible transmittance at concentrations ranging from 300 to 1000 ppm (FIG. 16). Molar extinction coefficients of 490,000-544,000 M^−1 cm^−1 for Soret band are in agreement with literature values for similar metallated porphyrins (Taniguchi, M.; Lindsey, J. S. Photochemistry and Photobiology, 2018, 94, 290-327).

Data set [2] in a line: Stability under simulated photocuring conditions (450 nm LED, photoinitiator). The data set is classed as physicochemical. The procedure: (§1) The stabilities of exemplary compounds 8 and 9 were evaluated under various conditions in the presence of initiator and monomer under curing conditions in comparison with copper tetraphenylporphyrin (Cu-TPP) and zinc tetraphenylporphyrin (Zn-TPP) as controls.
Experimental Procedure for Photo-Curing System:
• (A) for Stability Test without Monomers • 1. Parent solution: Dimethylacetamide (DMAC) solutions (200-500 ppm) of corresponding porphyrins, namely ZnTPP (200 ppm), CuTPP (200 ppm), Cu-TBP-Am (500 ppm), and Cu-TBP-MAm (500 ppm) were prepared in amber glass vial. The solutions were allowed to stir at room temperature for about 0.5 hour to provide homogeneous solutions. Photoinitiator (0.6 wt %) was added to each solution (under yellow light), and the solution was stirred for another 1 hour. • 2. Solution “BEFORE” Thermal Treatment & UV-VIS Measurement: The solution was transferred into 100 μm quartz cell and UV-Vis spectra were recorded using Perkin Elmer Lambda 850 UV-Vis Spectrophotometer. The spectrum was regarded as “before”. • 3. Photocuring of Parent Solution: Each quartz cell was exposed to 450 nm LED light with intensity of 55 mW/cm^2 for 30 s. • 4. Solution “AFTER” photocuring & UV-VIS Measurement: UV-Vis spectra of solutions in 100 μm quartz cell exposed to LED light were recorded using Perkin Elmer Lambda 850 UV-Vis Spectrophotometer. The spectrum was regarded as “after”. • 5. % T Calculation: % Loss is expressed as % T increase at the specific wavelength of Soret band for each porphyrin solution. • (B) For Stability Test with Monomers • 1. Parent solution: Cu-TBP-Am and Cu-TBP-MAm were dissolved in DMA (30 wt %), TRIS (30 wt %) and 1-PrOH (40 wt %) in amber glass vial to afford 500 ppm porphyrin solutions. The solutions were allowed to stir at room temperature for about 0.5 hour to provide homogeneous solutions. Photoinitiator (0.6 wt %) was added to each solution (under yellow light), and the solution was stirred for another 1 hour. • 2. Solution “BEFORE” Thermal Treatment & UV-VIS Measurement: The solution was transferred into 100 μm quartz cell and UV-Vis spectra were recorded using Perkin Elmer Lambda 850 UV-Vis Spectrophotometer. The spectrum was regarded as “before”. • 3. Photocuring of Parent Solution: Each quartz cell was exposed to 450 nm LED light with intensity of 55 mW/cm^2 for 30 s. • 4. Solution “AFTER” photocuring & UV-VIS Measurement: UV-Vis spectra of solutions in 100 μm quartz cell exposed to LED light were recorded using Perkin Elmer Lambda 850 UV-Vis Spectrophotometer. The spectrum was regarded as “after”. • 5. % T Calculation: % Loss is expressed as % T increase at the specific wavelength of Soret band for each porphyrin solution. Experimental Procedure for Thermal-Curing System: • (A) for Stability Test without Monomers • 1. Parent solution: Dimethylacetamide (DMAC) solutions (500 ppm) of corresponding porphyrins, namely ZnTPP, CuTPP, Cu-TBP-Am, and Cu-TBP-MAm were prepared in amber glass vial. The solutions were allowed to stir at room temperature for about 0.5 hours to provide homogeneous solutions. Vazo 64 (0.5 wt %) was added to each solution, and the solution was stirred for another 10 minutes. Each solution was bubbled with nitrogen for 5 minutes to remove oxygen. • 2. […] The solution was transferred into 1 cm quartz cell and UV-Vis spectra were recorded using Perkin Elmer Lambda 850 UV-Vis Spectrophotometer. […]

Data set [3] in a line: Solubility studies at 500 ppm in solvent, monomers and simulated formulation. The procedure: The solubilities of exemplary compounds 8 and 9 were evaluated in various solvent systems in comparison with copper tetraphenylporphyrin (Cu-TPP) as a control.
• 1. Weigh 3 to 4 mg of the Copper porphyrin compound into an 8 mL scintillation vial • 2. In the case of one solvent or monomer, dilute to 500 ppm with the solvent or monomer, add a stir bar, and stir mixture overnight. • 3. In the case of multiple solvents, add the best solvent for the copper porphyrin first, add a stir bar and stir for 1 hour. Add the other solvents and stir overnight. • 4. Evaluate solution miscibility after stirring overnight.

Data set [4] in a line: Stability under simulated thermal curing conditions (Vazo 64, 80° C., 2 hours). The data set is classed as physicochemical. The note with it: 500 ppm, Vazo 64 0.5 wt %; for Stability under simulated thermal curing, without monomers: DMAC. As to the method: as §1
• (A) for Stability Test without Monomers • 1. Parent solution: Dimethylacetamide (DMAC) solutions (200-500 ppm) of corresponding porphyrins, namely ZnTPP (200 ppm), CuTPP (200 ppm), Cu-TBP-Am (500 ppm), and Cu-TBP-MAm (500 ppm) were prepared in amber glass vial. The solutions were allowed to stir at room temperature for about 0.5 hour to provide homogeneous solutions. Photoinitiator (0.6 wt %) was added to each solution (under yellow light), and the solution was stirred for another 1 hour. • 2. Solution “BEFORE” Thermal Treatment & UV-VIS Measurement: The solution was transferred into 100 μm quartz cell and UV-Vis spectra were recorded using Perkin Elmer Lambda 850 UV-Vis Spectrophotometer. The spectrum was regarded as “before”. • 3. […] Solution “AFTER” photocuring & UV-VIS Measurement: UV-Vis spectra of solutions in 100 μm quartz cell exposed to LED light were recorded using Perkin Elmer Lambda 850 UV-Vis Spectrophotometer. The spectrum was regarded as “after”. • 5. % T Calculation: % Loss is expressed as % T increase at the specific wavelength of Soret band for each porphyrin solution. • (B) For Stability Test with Monomers • 1. […] Solution “BEFORE” Thermal Treatment & UV-VIS Measurement: The solution was transferred into 100 μm quartz cell and UV-Vis spectra were recorded using Perkin Elmer Lambda 850 UV-Vis Spectrophotometer. […] Solution “AFTER” photocuring & UV-VIS Measurement: UV-Vis spectra of solutions in 100 μm quartz cell exposed to LED light were recorded using Perkin Elmer Lambda 850 UV-Vis Spectrophotometer. The spectrum was regarded as “after”. • 5. % T Calculation: % Loss is expressed as % T increase at the specific wavelength of Soret band for each porphyrin solution. […] The solution was transferred into 1 cm quartz cell and UV-Vis spectra were recorded using Perkin Elmer Lambda 850 UV-Vis Spectrophotometer. […]

[5] abbreviates: DMAC, photoinitiator 0.6 wt %, 450 nm LED 55 mW/cm^2 for 30 s.
Where [6] appears, read: 500 ppm, 1-Propanol, stirred overnight.
Where [7] appears, read: 500 ppm, monomer DMA, stirred overnight.
[8] abbreviates: 500 ppm, monomer HEMA, stirred overnight.
Where [9] appears, read: 500 ppm, simulated formulation 1-PrOH/DMA/TRIS (1:1:1).
Where [10] appears, read: 500 ppm, simulated formulation 1-PrOH/DMA/TRIS/Silicone oil (1:1:1:1).

Read-outs that look alike come from different tables or passages of the source.

`C=C(C)C(=O)NCCC[N+](C)(C)Cc1ccc(/C2=C3\C=CC(=N3)/C(c3ccc(C[N+](C)(C)CCCNC(=O)C(=C)C)cc3)=c3/cc/c4[n]3[Cu][n]3c2ccc3/C(c2ccc(C[N+](C)(C)CCCNC(=O)C(=C)C)cc2)=C2/C=CC(=N2)\C=4c2ccc(C[N+](C)(C)CCCNC(=O)C(=C)C)cc2)cc1` [Compound 8, Cu(II) tetra-(dimethylaminopropylmethacrylamidophenyl) porphine tetrabromide]: in data set [1], the “Molar extinction coefficients for Soret band” value was 490,000-544,000 M^−1 cm^−1. For the same compound, in data set [2], the “Stability (% T increase at Soret band) under simulated photocuring, without monomers” value was “show % T increase”. Moreover, in data set [3], the Solubility result was “Soluble”.
Regarding `C=CC(=O)NCCC[N+](C)(C)Cc1ccc(/C2=C3\C=CC(=N3)/C(c3ccc(C[N+](C)(C)CCCNC(=O)C=C)cc3)=c3/cc/c4[n]3[Cu][n]3c2ccc3/C(c2ccc(C[N+](C)(C)CCCNC(=O)C=C)cc2)=C2/C=CC(=N2)\C=4c2ccc(C[N+](C)(C)CCCNC(=O)C=C)cc2)cc1` [Compound 9, Cu(II) tetra-(dimethylaminopropylacrylamidophenyl) porphine tetrabromide], in data set [4] (DMA/TRIS/1-PrOH), the “Stability under simulated thermal curing, with monomers” value is “much better stability”. In addition, the “Stability under simulated thermal curing, without monomers” value in data set [4] is recorded as “much better stability”. The “Molar extinction coefficients for Soret band” value in data set [1] is on record as 490,000-544,000 M^−1 cm^−1. The “Stability (% T increase at Soret band) under simulated photocuring, with monomers” value in data set [2] (DMA/TRIS/1-PrOH, 500 ppm, photoinitiator 0.6 wt %, 450 nm LED 55 mW/cm^2 for 30 s) is reported as “not observed”. For the same compound, the “Stability (% T increase at Soret band) under simulated photocuring, without monomers” value in data set [2] (setting [5]) is “show % T increase”. Further, the Solubility entry is on record as “Soluble” in data set [3] (setting [6]); “Partially” in data set [3] (setting [7]); “Soluble” in data set [3] (setting [8]); “Soluble” in data set [3] (setting [9]); “Partially” in data set [3] (setting [10]).
As for `C1=Cc2nc1c(-c1ccccc1)c1ccc([n-]1)c(-c1ccccc1)c1nc(c(-c3ccccc3)c3ccc([n-]3)c2-c2ccccc2)C=C1.[Zn+2]` [ZnTPP, zinc tetraphenylporphyrin, reference compound], the “Stability under simulated thermal curing, without monomers” value in data set [4] is recorded as “difference is not observed”. For the same compound, in data set [2] (setting [5]), the “Stability (% T increase at Soret band) under simulated photocuring, without monomers” value was “CuTPP is significantly more stable than ZnTPP”.
On to “copper tetraphenylporphyrin [Cu-TPP, reference compound]”, for which the “Stability (% T increase at Soret band) under simulated photocuring, without monomers” value in data set [2] is on record as “significantly more stable than ZnTPP”. In addition, the Solubility result in data set [3] (setting [6]) is “Insoluble”; in data set [3] (setting [7]) it was “Soluble”; in data set [3] (setting [8]), “Insoluble”; in data set [3] (setting [9]) it was “Insoluble”; in data set [3] (setting [10]) it was “Insoluble”.

The record behind these values is US12724175B2, “Contact lens with optical prophylaxis” (High Performance Optics, Inc., priority 2021, dated 2026).
